Target: T1, Human KDR (Homo sapiens, UniProt P35968)
T1 construct: expressed in transfected cells; host or cells: NIH3T3 cells (mouse fibroblasts)
Assay: Inhibition of KDR phosphorylation in human KDR-transfected NIH3T3 cells (ELISA);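 for Selection ratio (KDR phosphorylation IC50 / c-fms phosphorylation IC50): class 2 means ratio of 10 or more and class 3 means 50 or more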
Format: cell-based
Settings: for Selection ratio (KDR phosphorylation IC50 / c-fms phosphorylation IC50): class 0-3; for IC50: human KDR-transfected NIH3T3 cells, VEGF 100 ng/ml, ELISA, read-out: KDR phosphorylation 50% inhibitory concentration (IC50)
Summary of the method: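 NIH3T3 cells transfected with human KDR, in 0.1% FCS medium, treated with compound 1 hr at 37° C, then stimulated with VEGF 100 ng/ml for 2 min. Lysate KDR phosphorylation measured by anti-phosphotyrosine capture/anti-KDR ELISA (A450); IC50 from inhibition normalized between VEGF-stimulated and unstimulated wells.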

T1 sequence (P35968 20-1356): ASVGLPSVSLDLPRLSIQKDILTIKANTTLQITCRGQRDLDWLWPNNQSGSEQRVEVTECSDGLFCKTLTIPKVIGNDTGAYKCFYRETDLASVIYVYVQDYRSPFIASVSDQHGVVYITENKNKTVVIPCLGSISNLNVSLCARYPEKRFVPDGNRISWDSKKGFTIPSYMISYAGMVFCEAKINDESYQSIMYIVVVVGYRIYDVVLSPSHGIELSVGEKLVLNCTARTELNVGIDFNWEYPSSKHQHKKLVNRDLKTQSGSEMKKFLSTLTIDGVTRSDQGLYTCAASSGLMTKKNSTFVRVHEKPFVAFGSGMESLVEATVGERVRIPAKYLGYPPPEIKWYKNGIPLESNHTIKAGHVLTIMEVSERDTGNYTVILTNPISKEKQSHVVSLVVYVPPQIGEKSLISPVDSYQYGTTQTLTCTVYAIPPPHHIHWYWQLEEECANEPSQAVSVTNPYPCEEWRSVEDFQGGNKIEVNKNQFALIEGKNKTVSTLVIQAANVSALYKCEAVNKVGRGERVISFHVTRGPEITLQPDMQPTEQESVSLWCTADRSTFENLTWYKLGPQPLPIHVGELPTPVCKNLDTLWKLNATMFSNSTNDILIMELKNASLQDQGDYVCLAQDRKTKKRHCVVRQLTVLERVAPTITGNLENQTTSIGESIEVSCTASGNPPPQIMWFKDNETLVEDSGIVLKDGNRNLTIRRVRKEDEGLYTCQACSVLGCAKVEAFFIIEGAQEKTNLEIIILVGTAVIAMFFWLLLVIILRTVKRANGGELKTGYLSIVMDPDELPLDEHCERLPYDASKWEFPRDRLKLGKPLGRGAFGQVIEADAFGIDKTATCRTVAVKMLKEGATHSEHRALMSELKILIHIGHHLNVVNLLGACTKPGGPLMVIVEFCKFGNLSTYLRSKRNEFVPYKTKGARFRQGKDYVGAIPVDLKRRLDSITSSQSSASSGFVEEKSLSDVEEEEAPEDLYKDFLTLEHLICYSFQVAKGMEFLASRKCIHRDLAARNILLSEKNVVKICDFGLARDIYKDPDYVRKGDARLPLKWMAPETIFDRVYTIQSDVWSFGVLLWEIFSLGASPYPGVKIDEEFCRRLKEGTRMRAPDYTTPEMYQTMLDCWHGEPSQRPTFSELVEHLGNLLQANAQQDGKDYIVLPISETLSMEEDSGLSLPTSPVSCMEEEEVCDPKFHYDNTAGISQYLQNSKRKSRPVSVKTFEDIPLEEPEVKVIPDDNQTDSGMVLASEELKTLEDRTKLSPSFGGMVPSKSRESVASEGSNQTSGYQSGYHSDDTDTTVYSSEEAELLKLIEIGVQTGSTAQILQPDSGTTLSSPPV

COc1cc2nccc(Oc3ccc(NC(=O)N[C@@H](C)c4ccc(F)cc4)cc3)c2cc1OC [Example 2, N-{4-[(6,7-Dimethoxy-4-quinolyl)oxy]phenyl}-N′-[(1S)-1-(4-fluorophenyl)ethyl]urea]
Selection ratio (KDR phosphorylation IC50 / c-fms phosphorylation IC50): 2 (when the value was 10 or more)
IC50: 32.3 nM

COc1cc2nccc(Oc3ccc(NC(=O)N[C@H](C)c4ccc(F)cc4)cc3)c2cc1OC [Example 3, N-{4-[(6,7-Dimethoxy-4-quinolyl)oxy]phenyl}-N′-[(1R)-1-(4-fluorophenyl)ethyl]urea]
Selection ratio (KDR phosphorylation IC50 / c-fms phosphorylation IC50): 0 (KDR phosphorylation 50% inhibitory concentration [μM]/c-fms phosphorylation 50% inhibitory concentration [μM] was less than 5)
IC50: < 1 nM

COc1cc2nccc(Oc3ccc(NC(=O)N[C@@H](C)c4ccc([N+](=O)[O-])cc4)cc3)c2cc1OC [Example 35, N-{4-[(6,7-Dimethoxy-4-quinolyl)oxy]phenyl}-N′-[(1S)-1-(4-nitrophenyl)ethyl]urea]
Selection ratio (KDR phosphorylation IC50 / c-fms phosphorylation IC50): 2 (when the value was 10 or more)
IC50: 310 nM

COc1cc2nccc(Oc3ccc(NC(=O)N[C@H](C)c4ccc([N+](=O)[O-])cc4)cc3)c2cc1OC [Example 36, N-{4-[(6,7-Dimethoxy-4-quinolyl)oxy]phenyl}-N′-[(1R)-1-(4-nitrophenyl)ethyl]urea]
Selection ratio (KDR phosphorylation IC50 / c-fms phosphorylation IC50): 0 (KDR phosphorylation 50% inhibitory concentration [μM]/c-fms phosphorylation 50% inhibitory concentration [μM] was less than 5)
IC50: 134 nM

COc1cc2nccc(Oc3ccc(NC(=O)N[C@@H](C)c4ccc(C)cc4)cc3)c2cc1OC [Example 41, N-{4-[(6,7-Dimethoxy-4-quinolyl)oxy]phenyl}-N′-[(1S)-1-(4-methylphenyl)ethyl]urea]
Selection ratio (KDR phosphorylation IC50 / c-fms phosphorylation IC50): 1 (when the value was 5 or more)
IC50: 18.8 nM

COc1cc2nccc(Oc3ccc(NC(=O)N[C@H](C)c4ccc(C)cc4)cc3)c2cc1OC [Example 42, N-{4-[(6,7-Dimethoxy-4-quinolyl)oxy]phenyl}-N′-[(1R)-1-(4-methylphenyl)ethyl]urea]
Selection ratio (KDR phosphorylation IC50 / c-fms phosphorylation IC50): 0 (KDR phosphorylation 50% inhibitory concentration [μM]/c-fms phosphorylation 50% inhibitory concentration [μM] was less than 5)
IC50: 16.6 nM

COc1cc2nccc(Oc3ccc(NC(=O)N[C@H](C)c4cccc(Br)c4)cc3)c2cc1OC [Example 45, N-[(1R)-1-(3-Bromophenyl)ethyl]-N′-{4-[(6,7-dimethoxy-4-quinolyl)oxy]phenyl}urea]
Selection ratio (KDR phosphorylation IC50 / c-fms phosphorylation IC50): 0 (KDR phosphorylation 50% inhibitory concentration [μM]/c-fms phosphorylation 50% inhibitory concentration [μM] was less than 5)
IC50: 2.5 nM

COc1cc2nccc(Oc3ccc(NC(=O)N[C@@H](C)c4cccc(Br)c4)cc3)c2cc1OC [Example 46, N-[(1S)-1-(3-Bromophenyl)ethyl]-N′-{4-[(6,7-dimethoxy-4-quinolyl)oxy]phenyl}urea]
Selection ratio (KDR phosphorylation IC50 / c-fms phosphorylation IC50): 3 (when the value was 50 or more)
IC50: 507 nM

COc1cc2nccc(Oc3ccc(NC(=O)N[C@@H](C)c4ccc(Cl)cc4)cc3)c2cc1OC [Example 47, N-[(1S)-1-(4-Chlorophenyl)ethyl]-N′-{4-[(6,7-dimethoxy-4-quinolyl)oxy]phenyl}urea]
Selection ratio (KDR phosphorylation IC50 / c-fms phosphorylation IC50): 3 (when the value was 50 or more)
IC50: 310 nM

COc1cc2nccc(Oc3ccc(NC(=O)N[C@H](C)c4ccc(Cl)cc4)cc3)c2cc1OC [Example 48, N-[(1R)-1-(4-Chlorophenyl)ethyl]-N′-{4-[(6,7-dimethoxy-4-quinolyl)oxy]phenyl}urea]
Selection ratio (KDR phosphorylation IC50 / c-fms phosphorylation IC50): 0 (KDR phosphorylation 50% inhibitory concentration [μM]/c-fms phosphorylation 50% inhibitory concentration [μM] was less than 5)
IC50: 2.7 nM

COc1cccc([C@H](C)NC(=O)Nc2ccc(Oc3ccnc4cc(OC)c(OC)cc34)cc2)c1 [Example 49, N-{4-[(6,7-Dimethoxy-4-quinolyl)oxy]phenyl}-N′-[(1S)-1-(3-methoxyphenyl)ethyl]urea]
Selection ratio (KDR phosphorylation IC50 / c-fms phosphorylation IC50): 2 (when the value was 10 or more)
IC50: 45.4 nM

COc1cccc([C@@H](C)NC(=O)Nc2ccc(Oc3ccnc4cc(OC)c(OC)cc34)cc2)c1 [Example 50, N-{4-[(6,7-Dimethoxy-4-quinolyl)oxy]phenyl}-N′-[(1R)-1-(3-methoxyphenyl)ethyl]urea]
Selection ratio (KDR phosphorylation IC50 / c-fms phosphorylation IC50): 0 (KDR phosphorylation 50% inhibitory concentration [μM]/c-fms phosphorylation 50% inhibitory concentration [μM] was less than 5)
IC50: 28.3 nM
